Assay: gradient 5% acetonitrile 3 min, to 50% in 2 min, to 85% in 15 min, held 3 min, 100 µL/min
Details: column: Zorbax Extend-C18 2.1 x 50 mm; eluents: water / acetonitrile, 0.1% formic acid
Procedure, shortened: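 The system's dead and dwell volumes were 40 μL and 900 μL, with a Zorbax Extend-C18 column (2.1 × 50 mm, 1.8 μm) run at 100 μL/min in water and acetonitrile containing 0.1% formic acid each. Pure standards were analyzed in mixtures of ~100 molecules by HPLC–quadrupole time-of-flight mass spectrometry in positive and negative ionization mode. Retention time was assigned from computationally picked, manually inspected adduct peaks.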

Row | SMILES | RP-LC retention time
1 | Cc1nc(-c2noc(-c3ccc(F)cc3)n2)cn1CC(=O)NC(C)c1ccccc1 (stereo unspecified) | 854 s
2 | CCC(=O)Nc1ccc(CCc2nc3ccc(C(=O)NCCC(C)C)cc3[nH]2)cc1 | 645 s
3 | Cc1nc2cc(N3CC(C(=O)Nc4ccc(Br)c(C)c4)CC3=O)ccc2o1 (stereo unspecified) | 846 s
4 | COCCCNC(=O)CN1C(=O)CCn2nc(-c3cn(C)c4ccccc34)cc21 | 685 s
5 | COc1cc(OC)c(NC(=O)Cn2ccn3nc(-c4ccccc4)c(CO)c3c2=O)cc1Cl | 849 s
6 | O=C(CNC(=O)c1ccc(=O)[nH]c1)NCC1CCCCC1 | 599 s
7 | Cc1ccn2c(Nc3ccccc3C)c(-c3ccccc3O)nc2c1 | 701 s
8 | CCOc1ccccc1CNC(=O)CN1C(=O)CSc2cccn2-c2ccccc21 | 962 s
9 | CCOC(=O)Cc1ccc(NC(=O)NC2CCN(c3ccc(F)cc3)C2=O)cc1 (stereo unspecified) | 812 s
10 | CCc1ccc(S(=O)(=O)N2CCCN(c3ccc(=O)n(-c4ccccc4)n3)CC2)cc1 | 904 s
11 | O=C(NCc1ccccc1C(F)(F)F)c1cn2ccccc2n1 | 757 s
12 | CC(C)c1ccc(CNC(=O)C2CCCN(c3cc(=O)n(C)c(=O)n3C)C2)cc1 (stereo unspecified) | 781 s
13 | CC(C)[C@H]1C(=O)O[C@@H]2CCN3CC=C(COC(=O)[C@](C)(O)[C@]1(C)O)[C@H]23 | 584 s
14 | O=C(C1CC1)N1CCCC1c1nc2ccccc2s1 (stereo unspecified) | 768 s
15 | CCOc1ccc(NC(=O)N2CCc3[nH]cnc3C2c2ccncc2)cc1 (stereo unspecified) | 561 s
16 | COC1C(=O)N(CC2CC2)C12CCN(S(=O)(=O)Cc1ccccc1)CC2 (stereo unspecified) | 819 s
17 | CC(C)c1ccc(CNC(=O)CN2CCc3ccccc3C2C(=O)N2CCCC2)cc1 (stereo unspecified) | 908 s
18 | Cc1ccc(CNC(=O)C2CCN(S(=O)(=O)c3cc(C(=O)N4CCCC4)n(C)c3)CC2)o1 | 699 s
19 | CCc1c(C(=O)O)nnn1-c1cc(OC)cc(OC)c1 | 730 s
20 | Cc1cc(Cl)ccc1OCc1nc(-c2ccc3c(c2)nnn3CCC(=O)N2CCCC2)no1 | 1050 s
21 | Cc1cc(=O)n(CC(=O)Nc2cccc(Cl)c2)c(-c2ccccc2)n1 | 1080 s
22 | O=C(c1ccncc1)N1CC(C(=O)N2CCN(c3ccccn3)CC2)C2(CCCCC2)C1 (stereo unspecified) | 570 s

The next lines start with the values.

Row | RP-LC retention time | SMILES
23 | 576 s | O=C(c1ccc(F)cc1)N1c2nc(-c3ccccc3)nn2C2(CCCCC2)[C@@H]2CCCC[C@@H]21
24 | 993 s | CC1CCN(c2ccc(-c3noc(CNC(=O)c4cccs4)n3)cc2)CC1
25 | 805 s | COc1ccc(-c2cn3c(CC(=O)Nc4ccc(OC)c(Cl)c4)csc3n2)cc1
26 | 718 s | COc1ccccc1C(=O)NCCc1nc2cccnc2n1C(C)C
27 | 773 s | Cc1cc(C)cc(NC(=O)CN2C(=O)COc3ccc(C(=O)N4CCCC4)cc32)c1
28 | 1060 s | Cc1ccccc1S(=O)(=O)N1CCC(CCC(=O)N2CCc3ccccc3C2)CC1
29 | 620 s | Cc1oc(-c2[nH]ncc2C(=O)N2CCCC2)cc1S(=O)(=O)NC1CC1
30 | 821 s | COc1ccc(-c2c(C)noc2NC(C)=O)cc1S(=O)(=O)Nc1cccc(C(F)(F)F)c1
31 | 1020 s | O=c1ccc(-c2cccc(Br)c2)nn1Cc1nc(-c2cccs2)no1
32 | 872 s | CCc1nc2ccccc2c(=O)n1Cc1noc(-c2cccc(OC)c2OC)n1
33 | 688 s | COc1ccc(CNC(=O)C2CCCN(c3nnc4cccc(C)n34)C2)c(OC)c1 (stereo unspecified)
34 | 764 s | CCSc1ccccc1C(=O)Nc1nnc(Cc2cccs2)o1
35 | 658 s | COc1ccc2[nH]c3c(C)c4ccncc4c(C)c3c2c1
36 | 1100 s | CCCN1C(=O)COc2ccc(-c3noc(-c4cccc(NC(=O)c5ccco5)c4)n3)cc21

Source: the METLIN SMRT retention time set (Domingo-Almenara et al. 2019)
